Common to all, as to format: cell-based
Experiment [1] has as its system NCI-H2170 (HER2 wild type) cells. In words: Tumor cell proliferation assay NCI-H2170 (HER2 wild type). Conditions: Homo sapiens, prior art compounds, 72 h, CellTiter-Glo, read-out: GI50 NCI H-2170 HER2 wt amp. Here is the method: (§1) For proliferation assays, NCI-H2170 (HER2 wild type), NCI-H2170 HER2 YVMA and EGFR WT dependent A431 cells were used. NCI-H2170 HER2 YVMA or NCI-H2170 cells were seeded into 96-well plates at 750 cells/60 μL in growth media (RPMI ATCC+10% FBS, +Penicillin/Streptomycin). […] Compounds were added by using a HP D3000 Digital Dispenser one day after plating the cells. All treatments were performed in technical triplicates. Treated cells were incubated for 72 h at 37° C. with 5% CO2. CellTiter-Glo® Luminescent Cell Viability Assay (Promega) was performed and chemoluminescence was measured by using the multilabel Plate Reader VICTOR X4. The raw data were imported into and analyzed with the Boehringer Ingelheim proprietary software MegaLab (curve fitting based on the program PRISM, GraphPad Inc.).
(In ATP-based viability assays light output follows the ATP content of the culture.)

In experiment [2] the test system is Ba/F3 cells HER2 mutants (YVMA). Put plainly: Ba/F3 proliferation assay HER2 YVMA. To be noted: Mus musculus, BaF3; prior art compounds; 72 h, CellTiter-Glo. Here is the method: (§2) Ba/F3 cell model generation and proliferation assays
(§3) Plasmids containing HER2 mutants and EGFR WT were obtained from GeneScript. To generate EGFR/HER2-dependent Ba/F3 models, Ba/F3 cells were transduced with retroviruses containing vectors that harbor EGFR WT, HER2 WT or HER2 mutants (YVMA). Platinum-E cells (Cell Biolabs) were used for retrovirus packaging. Retrovirus was added to Ba/F3 cells. To ensure infection, 4 μg/mL polybrene was added and cells were spinfected. Infection efficiency was confirmed by measuring GFP-positive cells using a cell analyzer. Cells with an infection efficiency of 10% to 20% were further cultivated and puromycin selection with 1 μg/mL was initiated. As a control, parental Ba/F3 cells were used to assess the selection status. Selection was considered successful when parental Ba/F3 cells cultures died. To evaluate the transforming potential of HER2 mutations, the growth medium was no longer supplemented with IL-3. Ba/F3 cells harboring the empty vector were used as a control. A switch from IL-3 to EGF was performed for Ba/F3 cells with the EGFR WT known for its dependency on EGF ligand. Approximately ten days before conducting the experiments, puromycin was left out. For proliferation assays (data in table 12 and 14), Ba/F3 cells were seeded into 96-well plates at 5×10^3 cells/100 μL in growth media. Compounds were added by using a HP D3000 Digital Dispenser. All treatments were performed in technical triplicates. Treated cells were incubated for 72 h at 37° C. with 5% CO2. CellTiter-Glo® Luminescent Cell Viability Assay (Promega) was performed and chemoluminescence was measured by using the multilabel Plate Reader VICTOR X4. The raw data were imported into and analyzed with the Boehringer Ingelheim proprietary software MegaLab (curve fitting based on the program PRISM, GraphPad Inc.).

The test system of another experiment is Ba/F3 cells EGFR WT. In words: Ba/F3 proliferation assay EGFR WT (EGF dependent). Conditions: Mus musculus, BaF3, prior art compounds, EGF instead of IL-3, 72 h, CellTiter-Glo, read-out: GI50 BAF3 EGF dep. The protocol: as §2, §3
The next experiment concerns Ba/F3 cells HER2 WT. Put plainly: Ba/F3 proliferation assay HER2 WT. Conditions: Mus musculus, BaF3; prior art compounds; 72 h, CellTiter-Glo. Here is the method: as §2, §3
The test system of experiment [3] is NCI-H2170 HER2 YVMA cells. In words: Tumor cell proliferation assay NCI-H2170 HER2 YVMA. To be noted: Homo sapiens, prior art compounds, 72 h, CellTiter-Glo, read-out: GI50 NCI H-2170 HER2 YVMA.
Description: HER2 YVMA tumor cell line model generation and proliferation assays
Homology-directed genome engineering was employed to insert a 12 nucleotide sequence encoding YVMA into Exon 20 of the genomic HER2 locus in NCI-H2170 cells. […] The DNA template containing the HER2 exon 20 YVMA insertion variant was obtained from GenScript. PCR followed by Sanger sequencing was used to confirm the presence of the 12-nucleotide insertion in HER2 Exon 20 resulting in the YVMA amino acid duplication.
as §1

The subject of experiment [4] is EGFR WT dependent A431 cells. Put plainly: Tumor cell proliferation assay A431 (EGFR WT dependent). To be noted: Homo sapiens, A-431; prior art compounds; 72 h, CellTiter-Glo; read-out: GI50 A431 EGFR wt amp. The protocol: as §1

Each structure is given as a SMILES string.

For `C=CC(=O)Nc1ccc2ncnc(Nc3ccc(OCc4cccc(F)c4)c(Cl)c3)c2c1` [allitinib, reference compound], the GI50 – broadly, the concentration at which growth is held to half of that of the control – in experiment [1] came out at 36 nM; in experiment [2], 17 nM; with Ba/F3 cells EGFR WT it was 31 nM.
For the molecule `C=CC(=O)Nc1cccc(-n2c(=O)c(Oc3ccc(F)cc3F)cc3cnc(Nc4cnn(C)c4)nc32)c1` [WO 2019/046775 Comp.2, reference compound], the 50% growth inhibitory concentration (GI50) in experiment [1] is 22 nM; in experiment [2], 14 nM; in the experiment with Ba/F3 cells HER2 WT, 3 nM; in the experiment with Ba/F3 cells EGFR WT it was 13 nM; in experiment [3] it was 34 nM; in experiment [4], 16 nM.
Turning to `C=CC(=O)N1CCC[C@@H](n2nc(-c3ccc(Oc4ccccc4)cc3)c3c(N)ncnc32)C1` [ibrutinib, reference compound], the GI50 in experiment [1] is 16 nM; in experiment [2], 44 nM; in the experiment on Ba/F3 cells EGFR WT, 70 nM.
In the case of `CCOc1cc2ncc(C#N)c(Nc3ccc(OCc4ccccn4)c(Cl)c3)c2cc1NC(=O)/C=C/CN(C)C` [neratinib, reference compound], the GI50 in experiment [1] was 3 nM; in experiment [2], 5 nM; in the experiment on Ba/F3 cells EGFR WT, 14 nM; in experiment [3], 37 nM; in experiment [4], 55 nM.
`C=CC(=O)Nc1ccc2ncnc(Nc3ccc(Oc4ccc5c(c4)ncn5C)c(C)c3)c2c1` [WO 2007/059257 Ex.185, reference compound]: the GI50 was 60 nM in experiment [2] and > 5000 nM in experiment [4].
For the molecule `Cc1cc(Nc2ncnc3ccc(NC4=NC(C)(C)CO4)cc23)ccc1Oc1ccn2ncnc2c1` [tucatinib, reference compound], the GI50 in experiment [1] came out at 58 nM; in the experiment with Ba/F3 cells HER2 WT it was 10 nM.
For `C=CC(=O)N1CCC(Oc2cc3c(Nc4ccc(Cl)c(Cl)c4F)ncnc3cc2OC)CC1` [poziotinib, reference compound], the GI50 in experiment [1] was determined as 1 nM; in experiment [2], 2 nM; in the experiment with Ba/F3 cells HER2 WT it was 1 nM; in the experiment on Ba/F3 cells EGFR WT, 1 nM; in experiment [3], 5 nM; in experiment [4] it was 1 nM.

The values above are taken from patent US20230126204A1, “[1,3]DIAZINO[5,4-d]PYRIMIDINES AS HER2 INHIBITORS” (Boehringer Ingelheim International GmbH, priority 2020, published 2023).
